Measurements published in patent US11957759B1, “Rapidly accelerated fibrosarcoma (RAF) degrading compounds and associated methods of use” (Arvinas Operations, Inc., priority 2022, dated 2024).

Legend:
[1] = molecular target: T1, B-RAF V600E (Homo sapiens, UniProt P15056, V600E); assay: Target protein degradation, assay A: T-Rex 293 cells, HA-B-RAF_V600E, 96 well format; format: cell-based; settings: T-Rex 293 HA-B-RAF_V600E cells, 24 hours, Examples 1-82
T1 construct: expressed in transfected cells; host or cells: T-Rex 293 cells (Invitrogen #R71007)
T1 sequence (P15056 whole entry V600E): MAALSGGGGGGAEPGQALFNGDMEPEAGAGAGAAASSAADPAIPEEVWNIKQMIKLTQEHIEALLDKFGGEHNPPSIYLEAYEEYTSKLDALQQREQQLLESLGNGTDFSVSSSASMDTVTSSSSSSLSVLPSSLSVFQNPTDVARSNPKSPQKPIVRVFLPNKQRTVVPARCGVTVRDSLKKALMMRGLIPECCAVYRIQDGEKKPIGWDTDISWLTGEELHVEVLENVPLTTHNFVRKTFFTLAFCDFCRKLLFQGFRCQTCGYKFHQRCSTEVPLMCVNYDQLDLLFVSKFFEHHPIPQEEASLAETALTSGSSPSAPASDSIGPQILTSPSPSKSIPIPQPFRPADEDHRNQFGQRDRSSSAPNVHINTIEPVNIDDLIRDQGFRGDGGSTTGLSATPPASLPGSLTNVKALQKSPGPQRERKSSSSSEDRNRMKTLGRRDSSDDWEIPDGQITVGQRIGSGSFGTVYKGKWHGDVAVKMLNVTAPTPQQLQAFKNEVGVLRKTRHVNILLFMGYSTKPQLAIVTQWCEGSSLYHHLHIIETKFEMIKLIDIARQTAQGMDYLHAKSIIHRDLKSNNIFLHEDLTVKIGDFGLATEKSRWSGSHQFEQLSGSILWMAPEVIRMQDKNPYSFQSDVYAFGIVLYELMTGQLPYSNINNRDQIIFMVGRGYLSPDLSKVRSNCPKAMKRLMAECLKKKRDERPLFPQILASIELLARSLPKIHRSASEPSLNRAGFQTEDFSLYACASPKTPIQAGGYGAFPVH
Description: A. T-Rex 293 Cells (96 well format)
T-Rex 293 cells were purchased from Invitrogen (#R71007), and stably transfected with a pcDNA4/TO_HA-B-RAF_V600E construct, using 400 ug Zeocin for selection. V600e cells are plated in ulbecco's Modified Eagle Medium (DMEM; Gibco #11965118) containing 10% fetal bovine serum (FBS; Gibco #16000044) and 1 ng/mL doxycycline (Selleckchem #4163) at a density of 5,000 cells/well in 50 μl on poly-D-lysine (PDL) coated, black clear bottom 96-well plates (Corning #354640) and incubated for 24 hours at 37° C. with 5% CO2. The following day 50 ul of tested compound was added at 2× concentration in DMEM with a final concentration ranging from 1 μM to 0.1 nM in 0.1% dimethylsulfoxide (DMSO), and incubated for 24 hours at 37° C. with 5% CO2. At the end of the experimental treatment, the media was flicked off and cells washed once with phosphate-buffered saline (PBS)++(PBS with CaCl and MgCl) and gently replacing with 200 μl PBS++ per well. The PBS++ was removed and 50 uL 4% paraformaldehyde (PFA; EMS #15710) in PBS++ was added, and incubate at room temperature for 15 minutes. Cells were washed once with PBS++ and 50 uL 0.1% Triton X-100 (Fisher #BP151-500) in PBS++ was added. Plate was incubate for 5 minutes at room temperature. Cells were was once with PBS++. Cells were blocked with 100 uL Licor blocking buffer (Licor #927-50000) for 1 hour at room temperature. Next, 50 uL of HA antibody (CST #3724) at 1:1000 in Licor blocking buffer was added, and the plate icubate overnight at 4° C. The plates were parafilmed to prevent evaporation. Plate was washed three times with 200 uL PBS++. Fifty microliters of HCS secondary antibody solution [1:1000 Hoechst (Invitrogen #H3570), 1:1000 phalloidin (Invitrogen #A22287) and 1:5000 Alexa fluor (Invitrogen #A11008)] was added and incubated for 1 hour. Plate was wash three times with 200 uL PBS++, and imaged on a high content reader (ImageXpress Micro XLS, Molecular Devices).
(§1) The concentration of an exemplary compound that leads to half maximal degradation (DC50) as well as the maximum degradation observed (Dmax, conventionally expressed as a percentage of control) is shown below in Table 2.

[2] = molecular target: T2, B-RAF G466V (Homo sapiens, UniProt P15056, G466V); assay: Target protein degradation, assay B: T-Rex 293 cells, HA-B-RAF_G466V, 96 well format; format: cell-based; settings: T-Rex 293 HA-B-RAF_G466V cells, 24 hours, Examples 1-82
T2 construct: expressed in transfected cells; host or cells: T-Rex 293 cells (Invitrogen #R71007)
T2 sequence (P15056 whole entry G466V): as the sequence (P15056 whole entry V600E) above, with G466V, E600V counted along it
Description: B. T-Rex 293 Cells (96 Well Format)
T-Rex 293 cells were purchased from Invitrogen (#R71007), and stably transfected with a pcDNA4/TO_HA-B-RAF_G466V construct, using 400 ug Zeocin for selection. G466V cells are plated in ulbecco's Modified Eagle Medium (DMEM; Gibco #11965118) containing 10% fetal bovine serum (FBS; Gibco #16000044) and 0.75 ng/mL doxycycline (Selleckchem #4163) at a density of 5,000 cells/well in 50 μl on poly-D-lysine (PDL) coated, black clear bottom 96-well plates (Corning #354640) and incubated for 24 hours at 37° C. with 5% CO2. The following day 50 ul of tested compound was added at 2× concentration in DMEM with a final concentration ranging from 30 nM to 3 pM in 0.1% dimethylsulfoxide (DMSO), and incubated for 24 hours at 37° C. with 5% CO2. At the end of the experimental treatment, the media was flicked off and cells washed once with phosphate-buffered saline (PBS)++(PBS with CaCl and MgCl) and gently replacing with 200 μl PBS++ per well. The PBS++ was removed and 50 uL 4% paraformaldehyde (PFA; EMS #15710) in PBS++ was added, and incubate at room temperature for 15 minutes. Cells were washed once with PBS++ and 50 uL 0.1% Triton X-100 (Fisher #BP151-500) in PBS++ was added. Plate was incubate for 5 minutes at room temperature. Cells were was once with PBS++. Cells were blocked with 100 uL Licor blocking buffer (Licor #927-50000) for 1 hour at room temperature. Next, 50 uL of HA antibody (CST #3724) at 1:1000 in Licor blocking buffer was added, and the plate icubate overnight at 4° C. The plates were parafilmed to prevent evaporation. Plate was washed three times with 200 uL PBS++. Fifty microliters of HCS secondary antibody solution [1:1000 Hoechst (Invitrogen #H3570), 1:1000 phalloidin (Invitrogen #A22287) and 1:5000 Alexa fluor (Invitrogen #A11008)] was added and incubated for 1 hour. Plate was wash three times with 200 uL PBS++, and imaged on a high content reader (ImageXpress Micro XLS, Molecular Devices).
as §1

| DC50 [1] [nM] | Dmax [1] [%] | DC50 [2] [nM] | Dmax [2] [%] | Structure (SMILES) |
| --- | --- | --- | --- | --- |
| 50 to 500 | 35 to 70 | 1 to 10 | ≤ 35 | N#Cc1c(NS(=O)(=O)N2CC[C@@H](F)C2)ccc(F)c1Oc1ccc2ncn(-c3ccc(N4CCN(CC5CN(c6ccc7c(c6)CN(C6CCC(=O)NC6=O)C7=O)C5)CC4)nc3)c(=O)c2c1 (stereo partly drawn) [Example 8, (3R)-N-{2-cyano-3-[(3-{6-[4-({1-[2-(2,6-dioxopiperidin-3-yl)-1-oxo-2,3-dihydro-1H-isoindol-5-yl]azetidin-3-yl}methyl)piperazin-1-yl]pyridin-3-yl}-4-oxo-3,4-dihydroquinazolin-6-yl)oxy]-4-fluorophenyl}-3-fluoropyrrolidine-1-sulfonamide] |
| 5 to 50 | 35 to 70 | 1 to 10 | 35 to 70 | Cn1c(=O)n(C2CCC(=O)NC2=O)c2ccc(N3CCC(CN4CCN(c5ccc(-n6cnc7ccc(Oc8c(F)ccc(NS(=O)(=O)N9CC[C@@H](F)C9)c8C#N)cc7c6=O)cc5)CC4)CC3)cc21 (stereo partly drawn) [Example 78, (3R)—N-{2-cyano-3-[(3-{4-[4-({1-[1-(2,6-dioxopiperidin-3-yl)-3-methyl-2-oxo-2,3-dihydro-1H-1,3-benzodiazol-5-yl]piperidin-4-yl}methyl)piperazin-1-yl]phenyl}-4-oxo-3,4-dihydroquinazolin-6-yl)oxy]-4-fluorophenyl}-3-fluoropyrrolidine-1-sulfonamide] |
| 5 to 50 | 35 to 70 | 1 to 10 | ≤ 35 | N#Cc1c(NS(=O)(=O)N2CC[C@@H](F)C2)ccc(F)c1Oc1ccc2ncn(-c3ccc(N4CCN(CC5CN(c6ccc7c(c6)CN([C@H]6CCC(=O)NC6=O)C7=O)C5)CC4)cc3)c(=O)c2c1 [Example 76, (3R)—N-(2-cyano-3-{[3-(4-{4-[(1-{2-[(3S)-2,6-dioxopiperidin-3-yl]-1-oxo-2,3-dihydro-1H-isoindol-5-yl}azetidin-3-yl)methyl]piperazin-1-yl}phenyl)-4-oxo-3,4-dihydroquinazolin-6-yl]oxy}-4-fluorophenyl)-3-fluoropyrrolidine-1-sulfonamide] |
| 50 to 500 | 35 to 70 | > 30 | – | N#Cc1c(NS(=O)(=O)N2CC[C@@H](F)C2)ccc(F)c1Oc1ccc2ncn(-c3cnc(N4CCN(CC5CN(c6ccc7c(c6)CN(C6CCC(=O)NC6=O)C7=O)C5)CC4)nc3)c(=O)c2c1 (stereo partly drawn) [Example 9, (3R)-N-{2-cyano-3-[(3-{2-[4-({1-[2-(2,6-dioxopiperidin-3-yl)-1-oxo-2,3-dihydro-1H-isoindol-5-yl]azetidin-3-yl}methyl)piperazin-1-yl]pyrimidin-5-yl}-4-oxo-3,4-dihydroquinazolin-6-yl)oxy]-4-fluorophenyl}-3-fluoropyrrolidine-1-sulfonamide] |
| > 500 | – | > 30 | – | N#Cc1c(NS(=O)(=O)N2CC[C@@H](F)C2)ccc(F)c1Oc1ccc2ncn(-c3ccc(N4CCN(c5ccc(C(=O)NC6CCC(=O)NC6=O)c(F)c5)CC4)cc3)c(=O)c2c1 (stereo partly drawn) [Example 72, 4-[4-(4-{6-[2-cyano-6-fluoro-3-({[(3R)-3-fluoropyrrolidin-1-yl]sulfonyl}amino)phenoxy]-4-oxo-3,4-dihydroquinazolin-3-yl}phenyl)piperazin-1-yl]-N-(2,6-dioxopiperidin-3-yl)-2-fluorobenzamide] |
| > 500 | – | > 30 | – | N#Cc1c(NS(=O)(=O)N2CC[C@@H](F)C2)ccc(F)c1Oc1ccc2ncn(-c3ccc(N4CCN(CC5CCN(c6ccc(F)c(C(=O)NC7CCC(=O)NC7=O)c6)CC5)CC4)cc3)c(=O)c2c1 (stereo partly drawn) [Example 15, 5-(4-{[4-(4-{6-[2-cyano-6-fluoro-3-({[(3R)-3-fluoropyrrolidin-1-yl]sulfonyl}amino)phenoxy]-4-oxo-3,4-dihydroquinazolin-3-yl}phenyl)piperazin-1-yl]methyl}piperidin-1-yl)-N-(2,6-dioxopiperidin-3-yl)-2-fluorobenzamide] |
| 50 to 500 | ≤ 35 | ≤ 1 | 35 to 70 | N#Cc1c(NS(=O)(=O)N2CC[C@@H](F)C2)ccc(F)c1Oc1ccc2ncn(-c3ccc(N4CCN(CC5CN(c6ccc7c(c6)CN(C6CCC(=O)NC6=O)C7=O)C5)CC4)cc3)c(=O)c2c1 (stereo partly drawn) [Example 2, (3R)—N-{2-cyano-3-[(3-{4-[4-({1-[2-(2,6-dioxopiperidin-3-yl)-1-oxo-2,3-dihydro-1H-isoindol-5-yl]azetidin-3-yl}methyl)piperazin-1-yl]phenyl}-4-oxo-3,4-dihydroquinazolin-6-yl)oxy]-4-fluorophenyl}-3-fluoropyrrolidine-1-sulfonamide] |
| 5 to 50 | 35 to 70 | > 30 | – | N#Cc1c(NS(=O)(=O)N2CC[C@@H](F)C2)ccc(F)c1Oc1ccc2ncn(-c3ccc(N4CCN(CC5CCN(c6ccc(C7CCC(=O)NC7=O)cc6F)CC5)CC4)cc3)c(=O)c2c1 (stereo partly drawn) [Example 13, (3R)-N-{2-cyano-3-[(3-{4-[4-({1-[4-(2,6-dioxopiperidin-3-yl)-2-fluorophenyl]piperidin-4-yl}methyl)piperazin-1-yl]phenyl}-4-oxo-3,4-dihydroquinazolin-6-yl)oxy]-4-fluorophenyl}-3-fluoropyrrolidine-1-sulfonamide] |
| 50 to 500 | ≤ 35 | 1 to 10 | 35 to 70 | N#Cc1c(NS(=O)(=O)N2CC[C@@H](F)C2)ccc(F)c1Oc1ccc2ncn(-c3ccc(N4CCN(CC5CCN(c6ccc7c(c6)CN(C6CCC(=O)NC6=O)C7=O)CC5)CC4)nc3)c(=O)c2c1 (stereo partly drawn) [Example 3, (3R)—N-[2-cyano-3-[3-[6-[4-[[1-[2-(2,6-dioxo-3-piperidyl)-1-oxo-isoindolin-5-yl]-4-piperidyl]methyl]piperazin-1-yl]-3-pyridyl]-4-oxo-quinazolin-6-yl]oxy-4-fluoro-phenyl]-3-fluoro-pyrrolidine-1-sulfonamide] |
| 50 to 500 | 35 to 70 | 1 to 10 | 35 to 70 | N#Cc1c(NS(=O)(=O)N2CC[C@@H](F)C2)ccc(F)c1Oc1ccc2ncn(-c3ccc(N4CCN(CC5CCN(c6ccc([C@H]7CCC(=O)NC7=O)cc6F)CC5)CC4)cc3)c(=O)c2c1 (single isomer, unassigned) [Example 80, (3R)—N-(2-cyano-3-{[3-(4-{4-[(1-{4-[(3R*)-2,6-dioxopiperidin-3-yl]-2-fluorophenyl}piperidin-4-yl)methyl]piperazin-1-yl}phenyl)-4-oxo-3,4-dihydroquinazolin-6-yl]oxy}-4-fluorophenyl)-3-fluoropyrrolidine-1-sulfonamide] |
